Read-outs that look alike come from different tables or passages of the source.
Experiments:
human DGKα = human DGKα (Homo sapiens (Human), UniProt P23743); assay: DGKα LIPGLO assay (extruded liposome substrate); assay type: biochemical
Procedure, shortened: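 Human full-length DGKα, His-tagged and produced in Sf9 cells, assayed at 20 nM (4× stock) on extruded liposomes of PS, 0.25 mM DAG and 2.75 mM PC, preincubated 10 min. Reaction started with 300 μM ATP (stock) and ran 1 h in MOPS pH 7.5/MgCl2/CaCl2/DTT buffer.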

[1] = tested on: Jurkat AP1-luciferase Reporter; assay: DGK AP1-Reporter Assay; assay type: cell-based
Procedure, shortened: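 Jurkat cells carrying a lentiviral AP1-luciferase reporter received 30 nl compound per well for 20 min at 37 °C and 5% CO2. They were then stimulated for 6 h with anti-CD3 solution at 0.4 μg/mL; reference wells received 4 μg/mL and unstimulated wells medium only. Readout was Steady-Glo luciferase luminescence (RLU).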

human DGKζ = human DGKζ (Homo sapiens (Human), UniProt Q13574); assay: DGKζ assay (detergent/lipid micelle substrate); assay type: biochemical
Procedure, shortened: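 Full-length human DGKα or DGKζ (C-terminal His tag, Sf9-expressed; 20 nM 4× stock) was preincubated 10 min at room temperature with PS/DAG octyl glucoside micelles in MOPS pH 7.5 buffer with MgCl2, CaCl2 and DTT. It was then started with ATP (300 uM addition) and run for 1 hr, with ADP-Glo luminescence read-out.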

[2] = Homo sapiens, Jurkat, read-out: API-Luciferase Reporter IC50, Table 3
[3] = detergent/lipid micelle substrate, read-out: DGKζ IC50
[4] = Homo sapiens, Jurkat, read-out: DGKAP1 Lucif Reporter IC50, Table 4
[5] = read-out: API-Luciferase Reporter IC50, Table 3
[6] = DGKζ IC50, detergent/lipid micelle substrate
[7] = read-out: DGKAP1 Lucif Reporter IC50, Table 4

Chain of human DGKζ (Q13574 other isoform, or with tags, fused parts or gaps): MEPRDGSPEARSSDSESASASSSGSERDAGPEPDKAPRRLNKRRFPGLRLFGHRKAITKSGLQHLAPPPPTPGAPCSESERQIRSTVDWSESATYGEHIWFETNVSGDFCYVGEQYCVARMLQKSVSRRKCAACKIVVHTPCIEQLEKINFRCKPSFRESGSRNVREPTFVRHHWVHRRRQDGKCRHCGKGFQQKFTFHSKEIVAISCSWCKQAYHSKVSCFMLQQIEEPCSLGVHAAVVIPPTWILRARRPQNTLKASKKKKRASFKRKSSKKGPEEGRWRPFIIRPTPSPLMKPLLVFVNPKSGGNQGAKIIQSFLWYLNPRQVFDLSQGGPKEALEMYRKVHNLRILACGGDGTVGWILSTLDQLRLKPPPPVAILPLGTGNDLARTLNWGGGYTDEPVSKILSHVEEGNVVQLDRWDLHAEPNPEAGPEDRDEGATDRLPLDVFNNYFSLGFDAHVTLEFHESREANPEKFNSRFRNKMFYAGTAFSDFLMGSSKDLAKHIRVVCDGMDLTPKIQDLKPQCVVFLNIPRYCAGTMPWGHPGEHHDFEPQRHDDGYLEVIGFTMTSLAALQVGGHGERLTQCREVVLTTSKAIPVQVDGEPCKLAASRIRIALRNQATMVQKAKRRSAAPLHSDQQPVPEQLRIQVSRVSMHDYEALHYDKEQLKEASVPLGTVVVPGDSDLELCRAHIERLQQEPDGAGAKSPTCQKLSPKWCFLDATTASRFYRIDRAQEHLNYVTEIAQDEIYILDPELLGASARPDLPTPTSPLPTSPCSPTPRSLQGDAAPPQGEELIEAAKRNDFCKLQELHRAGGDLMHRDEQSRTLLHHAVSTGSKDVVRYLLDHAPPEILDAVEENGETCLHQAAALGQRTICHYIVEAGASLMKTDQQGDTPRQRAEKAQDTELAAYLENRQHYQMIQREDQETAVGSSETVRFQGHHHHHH
Chain of human DGKα (P23743 other isoform, or with tags, fused parts or gaps): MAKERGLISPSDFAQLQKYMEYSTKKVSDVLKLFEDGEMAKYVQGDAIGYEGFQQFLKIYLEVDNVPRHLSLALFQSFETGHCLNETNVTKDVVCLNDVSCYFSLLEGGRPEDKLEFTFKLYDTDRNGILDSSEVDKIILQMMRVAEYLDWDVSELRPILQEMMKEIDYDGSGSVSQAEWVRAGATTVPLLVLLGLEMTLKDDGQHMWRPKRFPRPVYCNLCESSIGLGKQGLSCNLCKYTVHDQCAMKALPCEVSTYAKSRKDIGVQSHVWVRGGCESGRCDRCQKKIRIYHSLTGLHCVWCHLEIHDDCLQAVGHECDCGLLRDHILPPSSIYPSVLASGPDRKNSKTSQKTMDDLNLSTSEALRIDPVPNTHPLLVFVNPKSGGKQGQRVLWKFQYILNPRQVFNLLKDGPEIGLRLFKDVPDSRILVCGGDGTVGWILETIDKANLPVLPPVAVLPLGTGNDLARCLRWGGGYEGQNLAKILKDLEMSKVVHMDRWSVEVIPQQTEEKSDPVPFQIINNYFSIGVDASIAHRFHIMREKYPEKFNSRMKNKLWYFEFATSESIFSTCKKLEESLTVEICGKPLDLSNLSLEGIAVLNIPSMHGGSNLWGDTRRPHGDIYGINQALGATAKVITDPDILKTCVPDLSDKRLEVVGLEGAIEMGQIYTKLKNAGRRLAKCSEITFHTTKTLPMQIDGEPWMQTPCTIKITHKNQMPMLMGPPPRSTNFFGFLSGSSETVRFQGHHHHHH

Compound | IC50 (human DGKα) | IC50 [1, 2] | IC50 (human DGKζ; [3]) | IC50 [1, 4] | IC50 [1, 5] | IC50 (human DGKζ; [6]) | IC50 [1, 7]
COc1ccc2c(n1)c(N1CCN(C(c3ccc(F)cc3)c3ccc(F)cc3OC)CC1)c(C#N)c(=O)n2C (racemic) [Example 412, 4-{4-[(4-fluoro-2-methoxyphenyl)(4-fluorophenyl)methyl]piperazin-1-yl}-6-methoxy-1-methyl-2-oxo-1,2-dihydro-1,5-naphthyridine-3-carbonitrile] | 1.8 µM |  |  |  |  |  | 
COc1ccccc1C(c1ccc(F)cc1)N1CCN(c2c(C#N)c(=O)n(C)c3ccc(Br)nc23)CC1 (single isomer, unassigned) [Example 13, 6-bromo-4-{4-[(4-fluorophenyl)(2-methoxyphenyl)methyl]piperazin-1-yl}-1-methyl-2-oxo-1,2-dihydro-1,5-naphthyridine-3-carbonitrile] | 5.4 µM | 1.3 µM | > 240 µM |  |  |  | 
COc1cc(F)ccc1C(c1ccc(F)cc1)N1CCN(c2c(C#N)c(=O)n(C)c3ccc(Br)nc23)CC1 (single isomer, unassigned) [Example 17, 6-bromo-4-{4-[(4-fluoro-2-methoxyphenyl)(4-fluorophenyl)methyl]piperazin-1-yl}-1-methyl-2-oxo-1,2-dihydro-1,5-naphthyridine-3-carbonitrile] | 3.5 µM | 0.35 µM | 180 µM | 1.33 µM |  |  | 
CC(c1ccc(F)cc1)N1CCN(c2c([N+](=O)[O-])c(=O)n(C)c3ccc(C#N)nc23)CC1 (single isomer, unassigned) [Example 44, 8-(4-(1-(4-fluorophenyl)ethyl)piperazin-1-yl)-5-methyl-7-nitro-6-oxo-5,6-dihydro-1,5-naphthyridine-2-carbonitrile] | 0.37 µM | 0.35 µM | 8.9 µM |  |  |  | 
C#CCn1c(=O)c([N+](=O)[O-])c(N2CCN(C(c3ccc(F)cc3)c3ccc(F)cc3O)CC2)c2nc(C#N)ccc21 (single isomer, unassigned) [Example 121, 8-(4-((4-fluoro-2-hydroxyphenyl)(4-fluorophenyl)methyl)piperazin-1-yl)-7-nitro-6-oxo-5-(prop-2-yn-1-yl)-5,6-dihydro-1,5-naphthyridine-2-carbonitrile] | 6.4 µM |  | 0.18 µM |  | 0.34 µM |  | 
COc1cc(F)ccc1C(c1ccc(F)cc1)N1CCN(c2c([N+](=O)[O-])c(=O)n(C)c3ccc(C#N)nc23)CC1 (single isomer, unassigned) [Example 124, 8-(4-((4-fluoro-2-methoxyphenyl)(4-fluorophenyl)methyl)piperazin-1-yl)-5-methyl-7-nitro-6-oxo-5,6-dihydro-1,5-naphthyridine-2-carbonitrile] | 0.75 µM | 0.1 µM |  | 0.57 µM |  | 0.9 µM | 
C#CCn1c(=O)c([N+](=O)[O-])c(N2CCN(C(C)c3ccc(F)cc3)CC2)c2nc(C#N)ccc21 (single isomer, unassigned) [Example 136, 8-(4-(1-(4-fluorophenyl)ethyl)piperazin-1-yl)-7-nitro-6-oxo-5-(prop-2-yn-1-yl)-5,6-dihydro-1,5-naphthyridine-2-carbonitrile] | 0.79 µM | 0.23 µM |  |  |  | 0.87 µM | 
C#CCn1c(=O)c([N+](=O)[O-])c(N2CCN(C(C)c3ccc(F)cc3)CC2)c2nc(C#N)ccc21 (single isomer, unassigned) [Example 137, 8-(4-(1-(4-fluorophenyl)ethyl)piperazin-1-yl)-7-nitro-6-oxo-5-(prop-2-yn-1-yl)-5,6-dihydro-1,5-naphthyridine-2-carbonitrile] | 1.5 µM |  |  |  | 0.19 µM | 4.8 µM | 
C#CCn1c(=O)c([N+](=O)[O-])c(N2CCN(C(CC)c3ccc(F)cc3)CC2)c2nc(C#N)ccc21 (single isomer, unassigned) [Example 141, 8-{4-[1-(4-fluorophenyl)propyl]piperazin-1-yl}-7-nitro-6-oxo-5-(prop-2-yn-1-yl)-5,6-dihydro-1,5-naphthyridine-2-carbonitrile] | 0.58 µM | 0.24 µM | 8.9 µM |  |  |  | 
C#CCn1c(=O)c([N+](=O)[O-])c(N2CCN(C(c3ccc(F)cc3)C3CC3)CC2)c2nc(C#N)ccc21 (single isomer, unassigned) [Example 143, 8-(4-(cyclopropyl(4-fluorophenyl)methyl)piperazin-1-yl)-7-nitro-6-oxo-5-(prop-2-yn-1-yl)-5,6-dihydro-1,5-naphthyridine-2-carbonitrile] | 3.4 µM |  | 4.2 µM | 1.28 µM |  |  | 
CC(C)C(c1ccc(F)cc1)N1CCN(c2c(C#N)c(=O)n(C)c3ccc(Cl)nc23)CC1 (single isomer, unassigned) [Example 315, 6-chloro-4-{4-[1-(4-fluorophenyl)-2-methylpropyl]piperazin-1-yl}-methyl-2-oxo-1,2-dihydro-1,5-naphthyridine-3-carbonitrile] | > 240 µM |  | > 240 µM | 10 µM |  |  | 
Cn1c(=O)c(C#N)c(N2CCN(C(CC(C)(C)C)c3ccc(F)cc3)CC2)c2nc(Cl)ccc21 (single isomer, unassigned) [Example 377, 6-chloro-4-{4-[1-(4-fluorophenyl)-3,3-dimethylbutyl]piperazin-1-yl}-1-methyl-2-oxo-1,2-dihydro-1,5-naphthyridine-3-carbonitrile] | > 240 µM |  |  | 10 µM |  |  | 
Cn1c(=O)c(C#N)c(N2CCN(C(CC(C)(C)C)c3ccc(F)cc3)CC2)c2nc(Cl)ccc21 (single isomer, unassigned) [Example 378, 6-chloro-4-{4-[1-(4-fluorophenyl)-3,3-dimethylbutyl]piperazin-1-yl}-1-methyl-2-oxo-1,2-dihydro-1,5-naphthyridine-3-carbonitrile] | 2.2 µM |  |  |  |  |  | 10 µM
Cn1c(=O)c(C#N)c(N2CCN(C(c3ccc(F)cc3)C3CCC3)CC2)c2nc(Cl)ccc21 (single isomer, unassigned) [Example 382, 6-chloro-4-{4-[cyclobutyl(4-fluorophenyl)methyl]piperazin-1-yl}-1-methyl-2-oxo-1,2-dihydro-1,5-naphthyridine-3-carbonitrile] | 0.76 µM |  |  | 10 µM |  |  | 
Cn1c(=O)c(C#N)c(N2CCN(C(c3ccc(F)cc3)C3CCC3)CC2)c2nc(Cl)ccc21 (single isomer, unassigned) [Example 383, 6-chloro-4-{4-[cyclobutyl(4-fluorophenyl)methyl]piperazin-1-yl}-1-methyl-2-oxo-1,2-dihydro-1,5-naphthyridine-3-carbonitrile] | 0.22 µM |  |  |  |  |  | 10 µM
CC(c1ccc(F)cc1)N1CCN(c2c(C#N)c(=O)n(C)c3ccc(Cl)nc23)CC1 (single isomer, unassigned) [Example 387, 6-chloro-4-{4-[1-(4-fluorophenyl)ethyl]piperazin-1-yl}-1-methyl-2-oxo-1,2-dihydro-1,5-naphthyridine-3-carbonitrile] | 0.27 µM |  | > 240 µM | 3.33 µM |  |  | 
CC(c1ccc(F)cc1)N1CCN(c2c(C#N)c(=O)n(C)c3ccc(Cl)nc23)CC1 (single isomer, unassigned) [Example 388, 6-chloro-4-{4-[1-(4-fluorophenyl)ethyl]piperazin-1-yl}-1-methyl-2-oxo-1,2-dihydro-1,5-naphthyridine-3-carbonitrile] | 0.051 µM |  | > 240 µM |  |  |  | 3.33 µM
COc1cc(F)ccc1C(c1ccc(F)cc1)N1CCN(c2c(C#N)c(=O)n(C)c3ccc(C#N)nc23)CC1 (single isomer, unassigned) [Example 406, 8-{4-[(4-fluoro-2-methoxyphenyl)(4-fluorophenyl)methyl]piperazin-1-yl}-5-methy-6-oxo-5,6-dihydro-L5-naphthyridine-2,7-dicarbonitrile] | 13 µM |  |  |  |  |  | 
COc1cc(F)ccc1C(c1ccc(F)cc1)N1CCN(c2c(C#N)c(=O)n(C)c3ccc(C#N)nc23)CC1 (single isomer, unassigned) [Example 407, 8-{4-[(4-fluoro-2-methoxyphenyl)(4-fluorophenyl)methyl]piperazin-1-yl}-5-methy-6-oxo-5,6-dihydro-L5-naphthyridine-2,7-dicarbonitrile] | 0.96 µM |  |  |  |  |  | 
CCCCn1c(=O)c([N+](=O)[O-])c(N2CCN(C(c3ccccc3)c3ccccc3)CC2)c2ncccc21 [Example 177, 4-(4-benzhydrylpiperazin-1-yl)-1-butyl-3-nitro-1,5-naphthyridin-2(1H)-one] | > 240 µM |  |  | 10 µM |  |  | 
Cn1c(=O)c(C#N)c(N2CCN(Cc3cccc4ccccc34)CC2)c2nc(C#N)ccc21 [Example 404, 5-methyl-8-{4-[(naphthalen-1-yl)methyl]piperazin-1-yl}-6-oxo-5,6-dihydro-1,5-naphthyridine-2,7-dicarbonitrile] | 4.9 µM |  | 63 µM |  |  |  | 
Cn1c(=O)c([N+](=O)[O-])c(N2CCN(Cc3cccc4ccccc34)CC2)c2nc(C#N)ccc21 [Example 415, 5-methyl-8-{4-[(naphthalen-1-yl)methyl]piperazin-1-yl}-7-nitro-6-oxo-5,6-dihydro-1,5-naphthyridine-2-carbonitrile] | 0.65 µM |  |  | 0.42 µM |  |  | 
Cn1c(=O)c(C#N)c(N2CCN(C(C)(C)c3ccc(F)cc3)CC2)c2nc(Cl)ccc21 [Example 425, 6-chloro-4-{4-[2-(4-fluorophenyl)propan-2-yl]piperazin-1-yl}-1-methyl-2-oxo-1,2-dihydro-1,5-naphthyridine-3-carbonitrile] | 20 µM |  | > 240 µM |  |  |  | 
